Experimental data: article PMC7602804 (Nutrients, 2020)

How the values were obtained:
[1] = system: pepsin, then trypsin, chymotrypsin and elastase; experiment: In vitro simulation of gastrointestinal digestion; format: in vitro ADME; settings: 1 mg/mL, pepsin 1:100 w/w, 0.15 M NaCl pH 2.5, 60 min, 37 °C, chymotrypsin 1:100 and elastase 1:500 w/w, 50 mM ammonium bicarbonate pH 7.6, 37 °C, sampled 5, 30, 60 and 270 min, MALDI-MS (osteopontin: SDS-PAGE)
Method: The purified milk peptides and the synthesized PIGSENSEKTTMPLW and […] peptides were subjected to digestion, essentially as described in [5, 26] with few modifications. The peptides were dissolved in 0.15 M of NaCl with a pH of 2.5 at a concentration of 1 mg/mL and incubated with pepsin from porcine gastric mucosa in a 1:100 w/w enzyme to substrate ratio for 60 min at 37 °C. Before digestion with pancreatic proteases, the sample was lyophilized and washed twice in deionized water. Trypsin and chymotrypsin from a bovine pancreas (Worthington Biochemical Corporation, NJ, USA) (1:100 w/w) and elastase (Worthington) (1:500 w/w) were added in 50 mM of ammonium bicarbonate buffer (pH = 7.6) and the mixture was incubated for 60 min at 37 °C. In digests of the synthesized peptides, aliquots were sampled and analyzed after 5 min, 30 min, 60 min and 270 min incubation with the intestinal enzymes. Bovine milk osteopontin was purified as previously described and incubated with the digestive proteases to validate their activity. The digested milk peptides were separated by RP-HPLC on an Aeris C4 widepore column (Phenomenex, Værløse, Denmark) connected to a Shimadzu (Kyoto, Japan) HPLC system. The peptides were separated in 0.1% TFA (buffer A) and eluted with a gradient of 60% acetonitrile in 0.1% TFA (buffer B) at 40 °C. The gradient was developed over 59 min (0–5 min: 0% buffer B; 5–49 min: 0–98% buffer B; 49–59 min: 98% buffer B) at a flow rate of 0.85 mL/min. The peptides were detected by measuring the absorbance at 226 nm and analyzed by matrix-assisted laser desorption ionization time-of-flight mass spectrometry (MALDI-MS).
MALDI-MS was performed using a Bruker Autoflex III instrument (Bruker Daltonics, Bremen, Germany). The analysis was performed using a saturated solution of α-cyano-4-hydroxycinnamic acid. The instrument was operated in reflected positive ionization mode and calibrated in the mass range of 1000 to 3200 Da using a peptide calibration standard (Bruker Daltonics, Bremen, Germany). The theoretical peptide masses were calculated using the General Protein/Mass Analysis for Windows software (Lighthouse Data, Odense, Denmark).

Caco-2 monolayers = experiment: Apical to basolateral transport of milk peptides across Caco-2 monolayers (LC-MS/MS of basolateral medium); format: in vitro ADME, human; settings: A-B, HBSS + 10 mM HEPES, 2.5 h; for Peptide identified in the basolateral chamber of Caco-2 monolayers (transported): Caco-2, 3 weeks on PET inserts 0.4 μm, TEER above 400 Ω cm^2, mix of 192 purified milk peptides 0.1 mg/mL apical, LC-MS/MS of basolateral medium, identified in two out of three experiments; for Peptides identified in the basolateral chamber of Caco-2 monolayers after synthetic PIGSENSEKTTMPLW was added apically: synthetic PIGSENSEKTTMPLW 2 µg/mL apical, LC-MS/MS
Method: The human colorectal adenocarcinoma cell line, Caco-2, was obtained from DSMZ (Braunschweig, Germany). The cells were grown to 50–60% confluence in Dulbecco’s Modified Eagle Medium (DMEM) Glutamax cell culture medium, supplemented with 10% heat-inactivated fetal bovine serum, 100 units/mL of penicillin and 100 μg/mL of streptomycin (all from Invitrogen, Carlsbad, CA, USA) in a humidified 5% CO2/95% air atmosphere at 37 °C. The cells used in the experiments were between passages 30 and 40.
The Caco-2 cells used for transport studies were seeded in polyethylene terephthalate culture inserts, with a pore size of 0.4 μm and a growth area of 0.33 cm^2 at a density of approximately 25,000 cells/insert. The Caco-2 cells were grown for three weeks on the porous membrane before they were used for transepithelial transport. The integrity of the monolayers was confirmed by measuring the TEER using a Millicell ERS-2 volt ohmmeter. Only Caco-2 monolayers with TEER values above 400 Ω cm^2 were used for the transport analysis.
(§1) Following the TEER value measurement, the Caco-2 and PBEC monolayers were gently washed twice with phosphate-buffered saline, and the transport medium (Hanks’ Balanced Salt solution supplemented with 10 mM of HEPES) was added to the apical and basolateral compartments. The inserts were incubated for 15 min or 2.5 h with the purified milk peptides (0.1 mg/mL) or the synthetic PIGSENSEKTTMPLW peptide (2 µg/mL), after which medium from the apical and basolateral compartments were collected for liquid chromatography tandem mass spectrometry (LC-MS/MS) analysis. Inserts incubated with a medium without peptides served as the control in the transport experiments. Membrane integrity was validated by addition of D-[1-^14C]-Mannitol (3.5 µM, 56.8 mCi/mmol) (Perkin Elmer, Waltham, MA, USA) to the upper chamber of the culture inserts with or without milk peptides for 2.5 h. The passive permeability experiments were performed on four or five individual culture inserts. Basolateral samples were mixed with Ultima Gold liquid scintillation fluid (Perkin Elmer) and counted in a Tri-Carb 2810 TR scintillation counter (Perkin Elmer). The apparent permeability coefficient (Papp, cm/s) was determined as Papp = (dQ/dt)/(AC0) where dQ/dt is the steady state flux (cpm/s), A is the surface area of the cell culture insert membrane and C0 is the initial concentration in the apical compartment (cpm/mL).
LC-MS/MS analysis was performed on a TripleTOF 6600 mass spectrometer equipped with an Exigent nanoLC 415 system (AB Sciex, Les Ulis, France). All samples were micro-purified using 3 M Empore C18 discs packed in pipette tips. The lyophilized samples were dissolved in 0.1% formic acid, injected on a trap column (2 cm × 100 µm inner diameter) and separated on an analytical column packed in-house in a pulled emitter (15 cm × 75 µm inner diameter). All columns were packed with ReproSil-Pur C18-AQ 3 µm resin (courtesy of Dr. Marisch, Ammerbuch-Entringen, Germany). Peptides were eluted directly into the mass spectrometer with a linear gradient from 5 to 35% solvent B (0.1% formic acid in acetonitrile) for 20 min with a flowrate of 250 nL/min, followed after 10 min with 100% solvent B. Data files were converted to Mascot Generic Format using the Raw Converter (version 1.1.0.18) (http://fields.scripps.edu/rawconv/) or the AB Sciex MS Data Converter beta 1.1 (AB Sciex, Les Ulis, France). The generated peak lists were searched against the Bos taurus proteome (UniProt database, https://www.uniprot.org)) using an in-house Mascot search engine (Matrix Science, London, UK). The searches were made without specifying a protease and with oxidation (Met) and phosphorylation (ST) as variable modifications. Peptide tolerance was set to 10 ppm and MS/MS tolerance was set to 0.2 Da. […]

[2] = system: porcine brain endothelial cell (PBEC) monolayers; experiment: Apical to basolateral transport of milk peptides across porcine brain endothelial cell (PBEC) monolayers, blood-brain barrier model; format: in vitro ADME; settings: A-B, HBSS + 10 mM HEPES, 2.5 h, LC-MS/MS; for Peptides identified in the basolateral chamber of PBEC monolayers after synthetic PIGSENSEKTTMPLW was added apically: synthetic PIGSENSEKTTMPLW 2 µg/mL apical; for Peptide identified in the basal compartment (brain side) of the PBEC BBB model (transported): primary PBEC on polyester inserts 0.4 μm, astrocyte conditioned medium, TEER higher than 800 Ω cm^2, mix of 192 milk peptides 0.1 mg/mL apical, five independent studies, αS1 peptide 'or' its truncated peptides stated collectively
Method: Capillaries were isolated from the brain cortices of domestic pigs 5–6 months old as previously described. PBECs were cultured by plating the capillaries in T75 flasks coated with collagen IV (500 µg/mL) and fibronectin (100 µg/mL) in DMEM-F12 medium, supplemented with 10% plasma-derived serum (First Link, Wolverhampton, UK), heparin (15 U), 100 units/mL of penicillin and 100 µg/mL of streptomycin (PBEC growth medium), and cultured in an incubator with humidified 5% CO2/95% air at 37 °C. Puromycin (4 µg/mL) was added to the growth medium for the first three days to obtain a pure culture of PBECs.
Astrocyte conditioned medium was collected every third day from primary rat astrocytes, sterile filtered and frozen until use. Isolation of primary rat astrocytes and preparation of astrocyte conditioned media were carried out as described in [20].
PBECs were grown until 70–80% confluency as described above and then passaged onto polyester culture inserts with a pore size of 0.4 μm and a growth area of 1.12 cm^2 (Costar, Corning, NY, USA) at a density of 1.1 × 10^5 cells/cm^2 in the PBEC growth medium. In the basolateral chamber, the medium consisted of 1 mL of PBEC growth medium and 0.5 mL of astrocyte conditioned medium. The medium was supplemented with differentiation factors: 550 nM of hydrocortisone, 250 μM of 8-(4-chlorophenylthio)adenosine-3′,5′-cyclic monophosphate (cAMP) and 17.5 μM of RO-201724 two days after seeding. The next day, the integrity of the PBEC monolayer was confirmed by measuring the TEER. Only PBEC monolayers with TEER values higher than 800 Ω cm^2 were used for the transport analysis.
as §1
LC-MS/MS analysis was performed on a TripleTOF 6600 mass spectrometer equipped with an Exigent nanoLC 415 system (AB Sciex, Les Ulis, France). All samples were micro-purified using 3 M Empore C18 discs packed in pipette tips. The lyophilized samples were dissolved in 0.1% formic acid, injected on a trap column (2 cm × 100 µm inner diameter) and separated on an analytical column packed in-house in a pulled emitter (15 cm × 75 µm inner diameter). All columns were packed with ReproSil-Pur C18-AQ 3 µm resin (courtesy of Dr. Marisch, Ammerbuch-Entringen, Germany). […]

[3] = system: pepsin from porcine gastric mucosa, then trypsin and chymotrypsin from a bovine pancreas and elastase; experiment: synthetic peptide: pepsin in 0.15 M NaCl pH 2.5 (1:100 w/w, 60 min), then trypsin, chymotrypsin (1:100 w/w) and elastase (1:500 w/w) in 50 mM ammonium bicarbonate pH 7.6; settings: 37 °C, up to 270 min

| Substance | Peptide identified in the basolateral chamber of Caco-2 monolayers (transported) (Caco-2 monolayers) | Peptide identified in the basal compartment (brain side) of the PBEC BBB model (transported) [2] | other results |
| --- | --- | --- | --- |
| osteopontin: bovine milk osteopontin, purified, incubated with the digestive proteases to validate their activity [reference compound] | – | – | Stability of the synthetic peptide / control in simulated gastrointestinal digestion [1]: cleaved by all the proteases |
| EVIESPPEINTVQVTSTAV [endogenous bovine milk peptide from κ-casein] | identified in the basolateral chamber | – | – |
| PIGSENSEKTT [truncated derivative of the αS1-casein peptide …] | – | identified in all experiments | Peptides identified in the basolateral chamber of PBEC monolayers after synthetic PIGSENSEKTTMPLW was added apically [2]: identified in the basolateral chamber of both monolayers; Peptides identified in the basolateral chamber of Caco-2 monolayers after synthetic PIGSENSEKTTMPLW was added apically (Caco-2 monolayers): identified in the basolateral chamber of both monolayers |
| YDGRGDSVVYGLRSKSKKFRR (N-terminally acetylated and amidated at the C terminal) | – | – | fragment found [3]: YDGRGDSVVY, 5 min |
| AAPAGAAIQS [endogenous bovine milk peptide from the polymeric immunoglobulin receptor] | not transported across the Caco-2 monolayers | identified in the basal compartment of the BBB model | – |
| PIGSENSEKTTMP [truncated derivative of the αS1-casein peptide …] | identified in the basolateral chamber | identified in all experiments | Peptides identified in the basolateral chamber of PBEC monolayers after synthetic PIGSENSEKTTMPLW was added apically [2]: identified in the basolateral chamber of both monolayers; Peptides identified in the basolateral chamber of Caco-2 monolayers after synthetic PIGSENSEKTTMPLW was added apically (Caco-2 monolayers): identified in the basolateral chamber of both monolayers |
| KNTMEHVSSSEESIISQETY [endogenous bovine milk peptide from αS2-casein] | identified in the basolateral chamber | – | – |
| Ac-YDGRGDSVVYGLRSKSKKFRR-NH2 [reference compound] | – | – | Stability of the synthetic peptide / control in simulated gastrointestinal digestion [1]: cleaved after 5 min incubation with the proteases |
| AAPAGAAIQSR [endogenous bovine milk peptide from the polymeric immunoglobulin receptor] | not transported across the Caco-2 monolayers | identified in the basal compartment of the BBB model | – |
| PVLGPVRGPFPIIV [endogenous bovine milk peptide from β-casein] | not transported across the Caco-2 monolayers | identified in the basal compartment of the BBB model | – |
